Molecular target: Topoisomerase II (Topo II)
Test: ELISA-based Topo II inhibition assay kit (Abcam), recombinant human enzyme, colorimetric
Assay type: biochemical

IC50: 45 nM
SMILES: O=c1oc(=O)c2c(ccc3nc4ccccc4[nH]c32)c1-c1ccccc1 [aotaphenazine]

Reference: PMC12680189, “Aotaphenazine, a rare hydrophenazine, targets topoisomerase II with anticancer efficacy: In silico to in vitro evidence” (PLOS One, 2025)
